Test results reported in US6689773B2, “Uracil substituted phenyl sulfamoyl carboxamides” (BASF Aktiengesellschaft, priority 2000, dated 2004).

Key:
Type in all cases: in vivo
[1] = tested on: TRZAW, Winter wheat, Tritium Aestivum, L. (Winter); assay: Postemergence herbicidal evaluation (Example 147); settings: rating scale 0-9, two to three weeks after treatment
Outline: (§1)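 Values are 0-9 visual scores, averaged over repeat tests where available. Seedlings of about two weeks were sprayed with roughly 0.016 to 0.032 kg/ha in 80/20 acetone/water plus 1.0% seed oil, then held in the greenhouse two to three weeks.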

[2] = tested on: ZEAMX, Field corn, Zea mays L.; assay: Postemergence herbicidal evaluation (Example 147); settings: rating scale 0-9, two to three weeks after treatment
Outline: as §1

[3] = tested on: CHEAL, Lambsquarters, Chenopodium album, L. Common; assay: Postemergence herbicidal evaluation (Example 147); settings: rating scale 0-9, two to three weeks after treatment
Outline: as §1

[4] = tested on: ALOMY, Blackgrass, Alopecurus myosuroides; assay: Postemergence herbicidal evaluation (Example 147); settings: rating scale 0-9, two to three weeks after treatment
Outline: as §1

[5] = tested on: IPOHE, Morningglory, Ivyleaf, Ipomoea hederacea, (L)Jacq.; assay: Postemergence herbicidal evaluation (Example 147); settings: rating scale 0-9, two to three weeks after treatment
Outline: as §1

[6] = tested on: AMBEL, Ragweed, Common, Ambrosia artemiisifolia, L.; assay: Postemergence herbicidal evaluation (Example 147); settings: rating scale 0-9, two to three weeks after treatment
Outline: as §1

[7] = tested on: GLXMA, Soybean, Glycine max, (L.) Merr.; assay: Postemergence herbicidal evaluation (Example 147); settings: rating scale 0-9, two to three weeks after treatment
Outline: as §1

[8] = tested on: SETVI, Green foxtail, Setaria viridis, (L.)Beau; assay: Postemergence herbicidal evaluation (Example 147); settings: rating scale 0-9, two to three weeks after treatment
Outline: as §1

[9] = tested on: XANST, Cocklebur, Xanthium strumariam; assay: Postemergence herbicidal evaluation (Example 147); settings: rating scale 0-9, two to three weeks after treatment
Outline: as §1

[10] = tested on: DIGSA, Crabgrass, (Hairy) L, Digitaria sanguinalis, (L)Scop; assay: Postemergence herbicidal evaluation (Example 147); settings: rating scale 0-9, two to three weeks after treatment
Outline: as §1

[11] = tested on: ABUTH, Velvetleaf, Abutilon theophrasti, Medic.; assay: Postemergence herbicidal evaluation (Example 147); settings: rating scale 0-9, two to three weeks after treatment
Outline: as §1

[12] = tested on: ECHCG, Barnyardgrass, Echinochloa crusgalli, (L.)Beau; assay: Postemergence herbicidal evaluation (Example 147); settings: rating scale 0-9, two to three weeks after treatment
Outline: as §1

[13] = tested on: TRZAW, Winter wheat, Tritium Aestivum, L. (Winter); assay: Preemergence herbicidal evaluation (Example 148); settings: rating scale 0-9, two to four weeks after treatment
Outline: (§2)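 Following sowing, cups received a soil spray of the compound dissolved in aqueous acetone, dosed to about 0.125 to 0.250 kg per hectare. Growth continued in the greenhouse under routine care before visual scoring at two to four weeks.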

[14] = tested on: ZEAMX, Field corn, Zea mays L.; assay: Preemergence herbicidal evaluation (Example 148); settings: rating scale 0-9, two to four weeks after treatment
Outline: as §2

[15] = tested on: CHEAL, Lambsquarters, Chenopodium album, L. Common; assay: Preemergence herbicidal evaluation (Example 148); settings: rating scale 0-9, two to four weeks after treatment
Outline: as §2

[16] = tested on: ALOMY, Blackgrass, Alopecurus myosuroides; assay: Preemergence herbicidal evaluation (Example 148); settings: rating scale 0-9, two to four weeks after treatment
Outline: as §2

[17] = tested on: IPOHE, Morningglory, Ivyleaf, Ipomoea hederacea, (L)Jacq.; assay: Preemergence herbicidal evaluation (Example 148); settings: rating scale 0-9, two to four weeks after treatment
Outline: as §2

[18] = tested on: AMBEL, Ragweed, Common, Ambrosia artemiisifolia, L.; assay: Preemergence herbicidal evaluation (Example 148); settings: rating scale 0-9, two to four weeks after treatment
Outline: as §2

[19] = tested on: GLXMA, Soybean, Glycine max, (L.) Merr.; assay: Preemergence herbicidal evaluation (Example 148); settings: rating scale 0-9, two to four weeks after treatment
Outline: as §2

[20] = tested on: SETVI, Green foxtail, Setaria viridis, (L.)Beau; assay: Preemergence herbicidal evaluation (Example 148); settings: rating scale 0-9, two to four weeks after treatment
Outline: as §2

[21] = tested on: XANST, Cocklebur, Xanthium strumariam; assay: Preemergence herbicidal evaluation (Example 148); settings: rating scale 0-9, two to four weeks after treatment
Outline: as §2

[22] = tested on: DIGSA, Crabgrass, (Hairy) L, Digitaria sanguinalis, (L)Scop; assay: Preemergence herbicidal evaluation (Example 148); settings: rating scale 0-9, two to four weeks after treatment
Outline: as §2

[23] = tested on: ABUTH, Velvetleaf, Abutilon theophrasti, Medic.; assay: Preemergence herbicidal evaluation (Example 148); settings: rating scale 0-9, two to four weeks after treatment
Outline: as §2

[24] = tested on: ECHCG, Barnyardgrass, Echinochloa crusgalli, (L.)Beau; assay: Preemergence herbicidal evaluation (Example 148); settings: rating scale 0-9, two to four weeks after treatment
Outline: as §2

## CCOC(=O)CN(C)S(N)(=O)=O [compound 53]
[1]; rate 0.016 kg/ha
  Postemergence herbicidal rating TRZAW: 5.6
[1]; rate 0.032 kg/ha
  Postemergence herbicidal rating TRZAW: 6.2
[2]; rate 0.016 kg/ha
  Postemergence herbicidal rating ZEAMX: 7.2
[2]; rate 0.032 kg/ha
  Postemergence herbicidal rating ZEAMX: 7.6
[3]; rate 0.016 kg/ha
  Postemergence herbicidal rating CHEAL: 8.1
[3]; rate 0.032 kg/ha
  Postemergence herbicidal rating CHEAL: 8.4
[4]; rate 0.016 kg/ha
  Postemergence herbicidal rating ALMOY: 2.3
[4]; rate 0.032 kg/ha
  Postemergence herbicidal rating ALMOY: 3.0
[5]; rate 0.016 kg/ha
  Postemergence herbicidal rating IPOHE: 8.8
[5]; rate 0.032 kg/ha
  Postemergence herbicidal rating IPOHE: 9.0
[6]; rate 0.016 kg/ha
  Postemergence herbicidal rating AMBEL: 8.9
[6]; rate 0.032 kg/ha
  Postemergence herbicidal rating AMBEL: 9.0
[7]; rate 0.016 kg/ha
  Postemergence herbicidal rating GLXMA: 8.1
[7]; rate 0.032 kg/ha
  Postemergence herbicidal rating GLXMA: 8.4
[8]; rate 0.016 kg/ha
  Postemergence herbicidal rating SETVI: 6.4
[8]; rate 0.032 kg/ha
  Postemergence herbicidal rating SETVI: 7.5
[9]; rate 0.016 kg/ha
  Postemergence herbicidal rating XANST: 9.0
[9]; rate 0.032 kg/ha
  Postemergence herbicidal rating XANST: 9.0
[10]; rate 0.016 kg/ha
  Postemergence herbicidal rating DIGSA: 5.3
[10]; rate 0.032 kg/ha
  Postemergence herbicidal rating DIGSA: 6.6
[11]; rate 0.016 kg/ha
  Postemergence herbicidal rating ABUTH: 9.0
[11]; rate 0.032 kg/ha
  Postemergence herbicidal rating ABUTH: 9.0
[12]; rate 0.016 kg/ha
  Postemergence herbicidal rating ECHCG: 8.1
[12]; rate 0.032 kg/ha
  Postemergence herbicidal rating ECHCG: 8.8
[13]; rate 0.125 kg/ha
  Preemergence herbicidal rating TRZAW: 1.3
[13]; rate 0.25 kg/ha
  Preemergence herbicidal rating TRZAW: 2.0
[14]; rate 0.125 kg/ha
  Preemergence herbicidal rating ZEAMX: 2.3
[14]; rate 0.25 kg/ha
  Preemergence herbicidal rating ZEAMX: 4.3
[15]; rate 0.125 kg/ha
  Preemergence herbicidal rating CHEAL: 9.0
[15]; rate 0.25 kg/ha
  Preemergence herbicidal rating CHEAL: 9.0
[16]; rate 0.125 kg/ha
  Preemergence herbicidal rating ALMOY: 1.3
[16]; rate 0.25 kg/ha
  Preemergence herbicidal rating ALMOY: 2.7
[17]; rate 0.125 kg/ha
  Preemergence herbicidal rating IPOHE: 9.0
[17]; rate 0.25 kg/ha
  Preemergence herbicidal rating IPOHE: 9.0
[18]; rate 0.125 kg/ha
  Preemergence herbicidal rating AMBEL: 8.9
[18]; rate 0.25 kg/ha
  Preemergence herbicidal rating AMBEL: 9.0
[19]; rate 0.125 kg/ha
  Preemergence herbicidal rating GLXMA: 8.1
[19]; rate 0.25 kg/ha
  Preemergence herbicidal rating GLXMA: 8.8
[20]; rate 0.125 kg/ha
  Preemergence herbicidal rating SETVI: 5.7
[20]; rate 0.25 kg/ha
  Preemergence herbicidal rating SETVI: 7.3
[21]; rate 0.125 kg/ha
  Preemergence herbicidal rating XANST: 9.0
[21]; rate 0.25 kg/ha
  Preemergence herbicidal rating XANST: 9.0
[22]; rate 0.125 kg/ha
  Preemergence herbicidal rating DIGSA: 8.1
[22]; rate 0.25 kg/ha
  Preemergence herbicidal rating DIGSA: 8.8
[23]; rate 0.125 kg/ha
  Preemergence herbicidal rating ABUTH: 9.0
[23]; rate 0.25 kg/ha
  Preemergence herbicidal rating ABUTH: 9.0
[24]; rate 0.125 kg/ha
  Preemergence herbicidal rating ECHCG: 7.5
[24]; rate 0.25 kg/ha
  Preemergence herbicidal rating ECHCG: 8.4
